Reference: patent US20250197382A1, “KIF18A INHIBITOR” (WIGEN BIOMEDICINE TECHNOLOGY (SHANGHAI) CO., LTD., priority 2022, published 2025)

target: Recombinant human KIF18A (1-467His-tagged) protein (Homo sapiens (Human), UniProt Q8NI77); experiment: KIF18A enzyme assay (microtubule-stimulated ATPase activity, ADP-Glo); assay type: biochemical; conditions: 30 nM KIF18A, ATP 75 μM, read-out: inhibitory activity against KIF18A IC50
How it was run: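 Baculovirus-expressed human KIF18A (1-467, His-tagged; 30 nM) preincubated 15 min at room temperature with compound (22-point 2-fold series) in pH 7.5 Tris buffer containing 30 μg/mL pig microtubules and 1 μM paclitaxel.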

Chain of Recombinant human KIF18A (1-467His-tagged) protein (Q8NI77 1-467): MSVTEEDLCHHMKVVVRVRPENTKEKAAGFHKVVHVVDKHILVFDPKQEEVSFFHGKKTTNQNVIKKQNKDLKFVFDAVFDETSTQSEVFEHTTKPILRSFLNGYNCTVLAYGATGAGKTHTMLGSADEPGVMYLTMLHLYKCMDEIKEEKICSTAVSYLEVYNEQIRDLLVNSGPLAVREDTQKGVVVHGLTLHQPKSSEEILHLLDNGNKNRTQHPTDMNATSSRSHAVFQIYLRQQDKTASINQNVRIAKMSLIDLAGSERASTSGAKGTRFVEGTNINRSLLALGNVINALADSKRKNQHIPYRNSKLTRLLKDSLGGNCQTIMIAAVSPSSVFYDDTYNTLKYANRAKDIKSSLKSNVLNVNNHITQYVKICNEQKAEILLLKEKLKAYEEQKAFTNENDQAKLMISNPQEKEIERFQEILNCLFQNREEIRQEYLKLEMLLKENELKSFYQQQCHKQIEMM
Chain of Recombinant human KIF18A (1-467His-tagged) protein (P02550 whole entry partner): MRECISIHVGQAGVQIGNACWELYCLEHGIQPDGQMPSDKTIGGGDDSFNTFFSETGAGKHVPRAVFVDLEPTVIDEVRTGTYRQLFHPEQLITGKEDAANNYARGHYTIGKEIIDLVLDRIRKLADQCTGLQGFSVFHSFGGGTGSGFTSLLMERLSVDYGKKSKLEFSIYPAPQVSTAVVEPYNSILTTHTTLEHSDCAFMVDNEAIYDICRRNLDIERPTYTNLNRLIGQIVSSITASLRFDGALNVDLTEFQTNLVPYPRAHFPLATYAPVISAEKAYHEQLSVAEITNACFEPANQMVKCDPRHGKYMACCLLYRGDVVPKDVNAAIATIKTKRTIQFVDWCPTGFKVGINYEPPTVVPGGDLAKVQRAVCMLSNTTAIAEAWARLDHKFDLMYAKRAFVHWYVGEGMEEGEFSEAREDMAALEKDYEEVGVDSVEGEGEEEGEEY
Chain of Recombinant human KIF18A (1-467His-tagged) protein (P02554 whole entry partner): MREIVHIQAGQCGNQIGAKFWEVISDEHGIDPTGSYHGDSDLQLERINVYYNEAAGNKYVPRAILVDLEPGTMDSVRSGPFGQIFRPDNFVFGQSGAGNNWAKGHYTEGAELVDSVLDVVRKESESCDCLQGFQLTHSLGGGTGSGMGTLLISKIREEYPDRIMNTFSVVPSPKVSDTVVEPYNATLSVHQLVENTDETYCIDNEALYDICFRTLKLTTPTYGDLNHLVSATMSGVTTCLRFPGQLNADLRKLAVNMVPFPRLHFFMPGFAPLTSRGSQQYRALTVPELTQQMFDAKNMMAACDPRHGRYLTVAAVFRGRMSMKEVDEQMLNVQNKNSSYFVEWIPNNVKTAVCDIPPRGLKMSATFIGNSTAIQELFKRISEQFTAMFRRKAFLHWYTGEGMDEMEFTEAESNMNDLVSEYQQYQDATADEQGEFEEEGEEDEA

IC50, ≤ 100 nM:
C[C@H](CO)S(=O)(=O)Nc1ccc(C(=O)Nc2cc3c(c(N4CCC(F)(F)CC4)c2)N(C)CC3)c(N2CCC3(CC2)CC3)c1 [Compound 270], C[C@@H]1CN(c2cc(NC(=O)c3ccc(NS(=O)(=O)[C@@H](C)CO)cc3N3CCC4(CC3)CC4)cc3c2N(C)CC3)CCO1 [Compound 271], C[C@@H]1CN(c2cc(NC(=O)c3ccc(NS(=O)(=O)[C@H](C)CO)cc3N3CCC4(CC3)CC4)cc3c2N(C)CC3)CCO1 [Compound 272], CN1CCc2cc(NC(=O)c3ccc(S(=O)(=O)NCCO)cc3N3CCC4(CC3)CC4)cc(N3CCC(F)(F)CC3)c21 [Compound 273], C[C@@H]1CN(c2cc(NC(=O)c3ccc(S(=O)(=O)NCCO)cc3N3CCC4(CC3)CC4)cc3c2N(C)CC3)CCO1 [Compound 274], C[C@H]1CN(c2cc(NC(=O)c3ccc(S(=O)(=O)NCCO)cc3N3CCC4(CC3)CC4)cc3c2N(C)CC3)CCO1 [Compound 275], CN1CCc2cc(NC(=O)c3ccc(S(=O)(=O)NCCO)cc3N3CCC4(CC3)CC4)cc(N3CC(F)(F)C3)c21 [Compound 276], CN1CCc2cc(NC(=O)c3ccc(S(=O)(=O)NCCO)cc3N3CCC4(CC3)CC4)cc(OCCC(F)(F)F)c21 [Compound 277], CN1CCc2cc(NC(=O)c3ccc(S(=O)(=O)NCCO)cc3N3CCC4(CC3)CC4)cc(N3CCC4(CC4)C3)c21 [Compound 278], CN1CCc2cc(NC(=O)c3ccc(S(=O)(=O)NCCO)cc3N3CCC4(CC3)CC4)cc(OC3CCC3)c21 [Compound 279], CN1CCc2cc(NC(=O)c3ccc(S(=O)(=O)NCCO)cc3N3CCC4(CC3)CC4)cc(N3CCC(C)(F)C3)c21 (stereo not drawn) [Compound 280], CN1CCc2cc(NC(=O)c3ccc(S(=O)(=O)NCCO)cc3N3CCC4(CC3)CC4)cc(N3CC4CC4C3)c21 (stereo not drawn) [Compound 282], CN1CCc2cc(NC(=O)c3ccc(S(=O)(=O)NCCO)cc3N3CCC4(CC3)CC4)cc(NC(C)(C)CO)c21 [Compound 283], CN1CCc2cc(NC(=O)c3ccc(S(=O)(=O)NCCO)cc3N3CCC4(CC3)CC4)cc(N3CCOCC3)c21 [Compound 284], C[C@@H](CO)NS(=O)(=O)c1ccc(C(=O)Nc2cc3c(c(N4CCC(F)(F)CC4)c2)N(C)CC3)c(N2CCC3(CC2)CC3)c1 [Compound 285], C[C@H](CO)NS(=O)(=O)c1ccc(C(=O)Nc2cc3c(c(N4CCC(F)(F)CC4)c2)N(C)CC3)c(N2CCC3(CC2)CC3)c1 [Compound 286], C[C@@H]1CN(c2cc(NC(=O)c3ccc(S(=O)(=O)N[C@@H](C)CO)cc3N3CCC4(CC3)CC4)cc3c2N(C)CC3)CCO1 [Compound 287], C[C@H](CO)NS(=O)(=O)c1ccc(C(=O)Nc2cc3c(c(N4CCO[C@H](C)C4)c2)N(C)CC3)c(N2CCC3(CC2)CC3)c1 [Compound 288], CN1CCc2cc(NC(=O)c3ccc(NS(=O)(=O)CCO)cc3N3CCC4(CC3)CC4)cc(N3CCC(F)(F)CC3)c21 [Compound 289], C[C@@H]1CN(c2cc(C(=O)Nc3ccc(NS(=O)(=O)CCO)cc3N3CCC4(CC3)CC4)cc3c2N(C)CC3)CCO1 [Compound 290], C[C@H]1CN(c2cc(C(=O)Nc3ccc(NS(=O)(=O)CCO)cc3N3CCC4(CC3)CC4)cc3c2N(C)CC3)CCO1 [Compound 291], CN1CCc2cc(C(=O)Nc3ccc(NS(=O)(=O)CCO)cc3N3CCC4(CC3)CC4)cc(N3CC(F)(F)C3)c21 [Compound 292], CN1CCc2cc(C(=O)Nc3ccc(NS(=O)(=O)CCO)cc3N3CCC4(CC3)CC4)cc(OCCC(F)(F)F)c21 [Compound 293], CN1CCc2cc(C(=O)Nc3ccc(NS(=O)(=O)CCO)cc3N3CCC4(CC3)CC4)cc(N3CCC4(CC4)C3)c21 [Compound 294], CN1CCc2cc(C(=O)Nc3ccc(NS(=O)(=O)CCO)cc3N3CCC4(CC3)CC4)cc(OC3CCC3)c21 [Compound 295], CN1CCc2cc(C(=O)Nc3ccc(NS(=O)(=O)CCO)cc3N3CCC4(CC3)CC4)cc(N3CCC(F)CC3)c21 [Compound 297], CN1CCc2cc(C(=O)Nc3ccc(NS(=O)(=O)CCO)cc3N3CCC4(CC3)CC4)cc(N3CC4CC4C3)c21 (stereo not drawn) [Compound 298], CN1CCc2cc(C(=O)Nc3ccc(NS(=O)(=O)CCO)cc3N3CCC4(CC3)CC4)cc(NC(C)(C)CO)c21 [Compound 299], CN1CCc2cc(C(=O)Nc3ccc(NS(=O)(=O)CCO)cc3N3CCC4(CC3)CC4)cc(N3CCOCC3)c21 [Compound 300], C[C@@H](CO)S(=O)(=O)Nc1ccc(NC(=O)c2cc3c(c(N4CCC(F)(F)CC4)c2)N(C)CC3)c(N2CCC3(CC2)CC3)c1 [Compound 301], C[C@H](CO)S(=O)(=O)Nc1ccc(NC(=O)c2cc3c(c(N4CCC(F)(F)CC4)c2)N(C)CC3)c(N2CCC3(CC2)CC3)c1 [Compound 302], C[C@@H]1CN(c2cc(C(=O)Nc3ccc(NS(=O)(=O)[C@@H](C)CO)cc3N3CCC4(CC3)CC4)cc3c2N(C)CC3)CCO1 [Compound 303], C[C@@H]1CN(c2cc(C(=O)Nc3ccc(NS(=O)(=O)[C@H](C)CO)cc3N3CCC4(CC3)CC4)cc3c2N(C)CC3)CCO1 [Compound 304], CN1CCc2cc(C(=O)Nc3ccc(S(=O)(=O)NCCO)cc3N3CCC4(CC3)CC4)cc(N3CCC(F)(F)CC3)c21 [Compound 305], C[C@@H]1CN(c2cc(C(=O)Nc3ccc(S(=O)(=O)NCCO)cc3N3CCC4(CC3)CC4)cc3c2N(C)CC3)CCO1 [Compound 306], CN1CCc2cc(C(=O)Nc3ccc(S(=O)(=O)NCCO)cc3N3CCC4(CC3)CC4)cc(N3CC(F)(F)C3)c21 [Compound 308], CN1CCc2cc(C(=O)Nc3ccc(S(=O)(=O)NCCO)cc3N3CCC4(CC3)CC4)cc(OCCC(F)(F)F)c21 [Compound 309], CN1CCc2cc(C(=O)Nc3ccc(S(=O)(=O)NCCO)cc3N3CCC4(CC3)CC4)cc(N3CCC4(CC4)C3)c21 [Compound 310], CN1CCc2cc(C(=O)Nc3ccc(S(=O)(=O)NCCO)cc3N3CCC4(CC3)CC4)cc(N3CCC(C)(F)C3)c21 (stereo not drawn) [Compound 312], CN1CCc2cc(C(=O)Nc3ccc(S(=O)(=O)NCCO)cc3N3CCC4(CC3)CC4)cc(N3CCC(F)CC3)c21 [Compound 313], CN1CCc2cc(C(=O)Nc3ccc(S(=O)(=O)NCCO)cc3N3CCC4(CC3)CC4)cc(N3CC4CC4C3)c21 (stereo not drawn) [Compound 314], CN1CCc2cc(C(=O)Nc3ccc(S(=O)(=O)NCCO)cc3N3CCC4(CC3)CC4)cc(NC(C)(C)CO)c21 [Compound 315], CN1CCc2cc(C(=O)Nc3ccc(S(=O)(=O)NCCO)cc3N3CCC4(CC3)CC4)cc(N3CCOCC3)c21 [Compound 316], C[C@@H](CO)NS(=O)(=O)c1ccc(NC(=O)c2cc3c(c(N4CCC(F)(F)CC4)c2)N(C)CC3)c(N2CCC3(CC2)CC3)c1 [Compound 317], C[C@H](CO)NS(=O)(=O)c1ccc(NC(=O)c2cc3c(c(N4CCC(F)(F)CC4)c2)N(C)CC3)c(N2CCC3(CC2)CC3)c1 [Compound 318]
